Patent US20260206753A1, “HERBICIDAL DERIVATIVES” (SYNGENTA CROP PROTECTION AG, priority 2022, published 2026)

Experiments:
Type in all cases: in vivo
[1] = test system: Amaranthus palmeri (AMAPA); assay: Pre-emergence herbicide test, glasshouse pots; conditions: 1000 g/ha, evaluated after 13 days
[2] = test system: Ipomoea hederacea (IPOHE); assay: Pre-emergence herbicide test, glasshouse pots; conditions: 1000 g/ha, evaluated after 13 days
Setaria faberi (SETFA) [3] = assay: Pre-emergence herbicide test, glasshouse pots; conditions: 1000 g/ha, evaluated after 13 days
[4] = test system: Echinochloa crus-galli (ECHCG); assay: Post-emergence herbicide test, glasshouse pots; conditions: sprayed after 8 days cultivation, 1000 g/ha, evaluated after 13 days
Procedure: (§1) Seeds of a variety of test species are sown in standard soil in pots (Setaria faberi (SETFA), Echinochloa crus-galli (ECHCG), Ipomoea hederacea (IPOHE), Amaranthus palmeri (AMAPA), Zea mays (ZEAMX), Amaranthus retoflexus (AMARE), Solanum nigrum (SOLNI), Lolium perenne (LOLPE), Abutilon theophrasti (ABUTH)). After 8 days cultivation under controlled conditions in a glasshouse (at 24° C./16° C., day/night; 14 hours light; 65% humidity), the plants are sprayed with an aqueous spray solution derived from the formulation of the technical active ingredient in acetone/water (50:50) solution containing 0.5% Tween 20 (polyoxyethelyene sorbitan monolaurate, CAS RN 9005-64-5). Compounds are applied at 1000 g/ha unless otherwise stated. The test plants are then grown in a glasshouse under controlled conditions in a glasshouse (at 24° C./16° C., day/night; 14 hours light; 65% humidity) and watered twice daily. After 13 days the test is evaluated for the percentage damage caused to the plant. The biological activities are shown in the following table on a five-point scale (5=81-100%; 4=61-80%; 3=41-60%; 2=21-40%; 1=0-20%).

[5] = test system: Amaranthus palmeri (AMAPA); assay: Post-emergence herbicide test, glasshouse pots; conditions: sprayed after 8 days cultivation, 1000 g/ha, evaluated after 13 days
Procedure: as §1

[6] = test system: Ipomoea hederacea (IPOHE); assay: Post-emergence herbicide test, glasshouse pots; conditions: sprayed after 8 days cultivation, 1000 g/ha, evaluated after 13 days
Procedure: as §1

Zea mays (ZEAMX) [7] = assay: Post-emergence herbicide test, glasshouse pots; conditions: sprayed after 8 days cultivation, 1000 g/ha, evaluated after 13 days
Procedure: as §1

[8] = test system: Amaranthus retoflexus (AMARE); assay: Post-emergence herbicide test, glasshouse pots; conditions: sprayed after 8 days cultivation, 1000 g/ha, evaluated after 13 days
Procedure: as §1

Setaria faberi (SETFA) [9] = assay: Post-emergence herbicide test, glasshouse pots; conditions: sprayed after 8 days cultivation, 1000 g/ha, evaluated after 13 days
Procedure: as §1

Zea mays (ZEAMX) [10] = assay: Pre-emergence herbicide test, glasshouse pots; conditions: 1000 g/ha, evaluated after 13 days
[11] = test system: Amaranthus retoflexus (AMARE); assay: Pre-emergence herbicide test, glasshouse pots; conditions: 1000 g/ha, evaluated after 13 days
[12] = test system: Echinochloa crus-galli (ECHCG); assay: Pre-emergence herbicide test, glasshouse pots; conditions: 1000 g/ha, evaluated after 13 days

Row | SMILES | AMAPA, percentage damage caused to the plant (five-point scale) [1] | IPOHE, percentage damage caused to the plant (five-point scale) [2] | SEFTA, percentage damage caused to the plant (five-point scale) (Setaria faberi (SETFA) [3]) | ECHCG, percentage damage caused to the plant (five-point scale) [4] | AMAPA, percentage damage caused to the plant (five-point scale) [5] | IPOHE, percentage damage caused to the plant (five-point scale) [6] | ZEAMX, percentage damage caused to the plant (five-point scale) (Zea mays (ZEAMX) [7]) | AMARE, percentage damage caused to the plant (five-point scale) [8] | SEFTA, percentage damage caused to the plant (five-point scale) (Setaria faberi (SETFA) [9]) | ZEAMX, percentage damage caused to the plant (five-point scale) (Zea mays (ZEAMX) [10]) | AMARE, percentage damage caused to the plant (five-point scale) [11] | ECHCG, percentage damage caused to the plant (five-point scale) [12]
1 | CCn1cc(-c2cc(C(=O)OC(C)C)c(Cl)cc2F)c(=O)c(C(=O)O)c1-c1ccc(Cl)c(Cl)c1 [Compound 6, 5-(4-chloro-2-fluoro-5-isopropoxycarbonyl-phenyl)-2-(3,4-dichlorophenyl)-1-ethyl-4-oxo-pyridine-3-carboxylic acid] | 5 (5=81-100%) | 4 (4=61-80%) | 5 (5=81-100%) | 5 (5=81-100%) | 5 (5=81-100%) | 3 (3=41-60%) | 4 (4=61-80%) | 5 (5=81-100%) | 5 (5=81-100%) | 5 (5=81-100%) | 5 (5=81-100%) | 5 (5=81-100%)
2 | CCn1cc(-c2cccc(OC(F)(F)F)c2F)c(=O)c(C(=O)O)c1-c1ccc(Cl)c(Cl)c1 [Compound 11, 2-(3,4-dichlorophenyl)-1-ethyl-5-[2-fluoro-3-(trifluoromethoxy)phenyl]-4-oxo-pyridine-3-carboxylic acid] | 2 (2=21-40%) | 3 (3=41-60%) | 3 (3=41-60%) | 4 (4=61-80%) | 4 (4=61-80%) | 3 (3=41-60%) | 1 (1=0-20%) | 4 (4=61-80%) | 2 (2=21-40%) | 0 | 2 (2=21-40%) | 3 (3=41-60%)
3 | CCn1cc(-c2cc(OC(F)(F)F)ccc2Cl)c(=O)c(C(=O)O)c1-c1ccc(Cl)c(Cl)c1 [Compound 7, 5-[2-chloro-5-(trifluoromethoxy)phenyl]-2-(3,4-dichlorophenyl)-1-ethyl-4-oxo-pyridine-3-carboxylic acid] | 3 (3=41-60%) | 1 (1=0-20%) | 5 (5=81-100%) | 4 (4=61-80%) | 4 (4=61-80%) | 3 (3=41-60%) | 3 (3=41-60%) | 4 (4=61-80%) | 5 (5=81-100%) | 3 (3=41-60%) | 4 (4=61-80%) | 4 (4=61-80%)
4 | CCn1cc(-c2cc(OC(F)(F)F)ccc2F)c(=O)c(C(=O)O)c1-c1ccc(Cl)c(Cl)c1 [Compound 5, 2-(3,4-dichlorophenyl)-1-ethyl-5-[2-fluoro-5-(trifluoromethoxy)phenyl]-4-oxo-pyridine-3-carboxylic acid] | 4 (4=61-80%) | 4 (4=61-80%) | 5 (5=81-100%) | 4 (4=61-80%) | 4 (4=61-80%) | 4 (4=61-80%) | 4 (4=61-80%) | 4 (4=61-80%) | 4 (4=61-80%) | 4 (4=61-80%) | 3 (3=41-60%) | 5 (5=81-100%)
5 | CCn1cc(-c2cc(C(=O)OC(C)C)ccc2F)c(=O)c(C(=O)O)c1-c1ccc(Cl)c(Cl)c1 [Compound 8, 2-(3,4-dichlorophenyl)-1-ethyl-5-(2-fluoro-5-isopropoxycarbonyl-phenyl)-4-oxo-pyridine-3-carboxylic acid] | 5 (5=81-100%) | 1 (1=0-20%) | 5 (5=81-100%) | 3 (3=41-60%) | 3 (3=41-60%) | 3 (3=41-60%) | 3 (3=41-60%) | 3 (3=41-60%) | 4 (4=61-80%) | 1 (1=0-20%) | 3 (3=41-60%) | 5 (5=81-100%)
6 | CCn1cc(-c2ccc(Cl)cc2F)c(=O)c(C(=O)O)c1-c1ccc(Cl)c(Cl)c1 [Compound 2, 5-(4-chloro-2-fluoro-phenyl)-2-(3,4-dichlorophenyl)-1-ethyl-4-oxo-pyridine-3-carboxylic acid] | 5 (5=81-100%) | 3 (3=41-60%) | 5 (5=81-100%) | 4 (4=61-80%) | 5 (5=81-100%) | 3 (3=41-60%) | 4 (4=61-80%) | 4 (4=61-80%) | 4 (4=61-80%) | 3 (3=41-60%) | 1 (1=0-20%) | 5 (5=81-100%)
7 | CCn1cc(-c2ccc(Cl)cc2)c(=O)c(C(=O)O)c1-c1ccc(Cl)c(Cl)c1 [Compound 1, 5-(4-chlorophenyl)-2-(3,4-dichlorophenyl)-1-ethyl-4-oxo-pyridine-3-carboxylic acid] | 1 (1=0-20%) | 3 (3=41-60%) | 5 (5=81-100%) | 4 (4=61-80%) | 3 (3=41-60%) | 3 (3=41-60%) | 3 (3=41-60%) | 3 (3=41-60%) | 4 (4=61-80%) | 1 (1=0-20%) | 0 | 5 (5=81-100%)
